Results reported in US20250177405A1, “METHODS OF TREATING NEUROLOGICAL AND CARDIOVASCULAR CONDITIONS” (ASTROCYTE PHARMACEUTICALS, INC., priority 2021, published 2025).
“Also recorded” adds a separate entry of the source. Where two headings read alike, the source gives them in different places.

Key:
[1] = system: traumatic brain injury (TBI) in mice; assay: mouse traumatic brain injury (TBI) model; conditions: in vivo
Protocol: Animals and traumatic brain injury (TBI): TBI is performed with a controlled closed skull injury model as described in Talley-Watts et al. 2012 (J. Neurotrauma 30, 55-66). Following the method described therein, a pneumatic impact device is used to generate a moderate TBI leaving the skull and dura matter intact. To achieve this, C57BL/6 mice are anesthetized with isoflurane (3% induction, 1% maintenance) in 100% oxygen. A body temperature of 37° C. is maintained using a temperature-controlled heated surgical table. A small midline incision is made on the scalp using aseptic surgical techniques. A 5 mm stainless steel disc is positioned on the skull and fixed using superglue on the right parietal bone between bregma and lamda over the somatosensory cortex. The mouse is then positioned on a stage directly under the pneumatic impact tip. […] Mice are placed in a Thermo-Intensive Care Unit (Braintree Scientific model FV-1; 37° C.; 27% O2) and monitored until fully awake and moving freely. […]
Western Blot Analysis for GFAP: At selected survival times, mice are anesthetized under isoflurane and sacrificed. […] The homogenate is transferred to a 2 mL tube and centrifuged at 1000 g for 10 minutes at 4° C. and the supernatant is collected and analyzed. Protein concentration is determined by the BCA assay using a 1:50 dilution. […]

[2] = neonatal pig pharmacokinetics: CSF versus brain extracellular fluid concentrations; format: in vivo; conditions: brain equilibrium dialysis
From the text: Using this receptor occupancy estimate, we advanced to studies in neonatal pigs, targeting doses that would yield unbound brain and CSF concentrations that would provide a similar receptor occupancy to that associated with efficacy in the rodent models. In the pig, we had the advantage of conducting pharmacokinetic studies involving CSF collection, brain equilibrium dialysis to directly determine brain unbound extracellular fluid concentrations, plasma concentrations and finally total brain concentrations. […] This was a key study to validate the use of I-1 CSF concentrations to estimate brain receptor occupancy. In the pig efficacy studies, we achieved efficacy at estimated receptor occupancies of around 2%.
Animals. Four-week old female neonatal pigs weighing approximately 7.5 Kg may be used for this study. Animals are equipped with brain microdialysis probes to obtain brain extracellular fluid samples for drug concentration determinations during the study.
Tissue Sampling: Blood samples are obtained at 0.25, 0.5, 1, 2, 4 and 6 hours post-dose. […]
Plasma, brain, brain extracellular fluid and cerebrospinal fluid concentrations of test compound are determined by LC-MS/MS utilizing tolbutamide as an internal standard. For each tissue matrix, standard curves are created and LLOQ/ULOQ concentrations determined.

[3] = brain tissue binding (free fraction); format: in vitro ADME, mouse
From the text: Example 3 of U.S. Pat. No. 9,789,131, which is incorporated herein by reference, describes assays for determining the plasma and brain free fraction of certain compounds such as I-1. Compounds described herein may be evaluated using such assays or similar variants thereof.

brain A1R/A3R = assay: estimated brain receptor occupancy of I-1 in rodent efficacy studies; format: in vivo; conditions: mouse and rat efficacy models, from brain unbound drug concentrations
From the text: Receptor occupancy is a mass action relationship:
The percentage of a receptor occupied by an agonist or antagonist is a function of the drug concentration and the drug affinity for the receptor target. The challenge is that drug concentrations at the target site (in this case, brain, and CSF) can vary by species, as can affinity for the drug target. Affinity of I-1 for its receptor target can vary by as much as 5-fold between species. Accordingly, for each species, it is necessary to determine the I-1 affinity for its target as well as the concentration of I-1 at each administered dose in a relevant matrix.
In our rodent mouse and rat efficacy studies, we were able to directly determine brain unbound drug concentrations at efficacious doses. In those efficacy models, the estimated receptor occupancies associated with efficacy were around 1% or less.

[4] = pre-efficacy pharmacokinetic study, intravenous bolus/constant rate infusion in tMCAO cynomolgus monkeys; format: in vivo, cynomolgus monkey; conditions: tMCAO (n = 1); for Kp at 22 h: cynomolgus monkey, CSF/plasma, intravenous, read-out: CSF/Plasma At 22-hour End of Dosing
Protocol: Macaques received a bolus dose of vehicle (40% PEG400 in 0.9% saline) or I-1 into a saphenous vein 2 h after occlusion (2 h prior to restoration of MCA blood flow), followed immediately by a 22 h intravenous infusion. This dosing regimen was designed to rapidly achieve and maintain pre-determined plasma and cerebrospinal fluid (CSF) steady-state concentrations of I-1 based on its pharmacokinetics previously determined in näive and MCA occluded macaques (Tables A-C below).
We then proceeded to our key preclinical stroke efficacy model in nonhuman primates. Pre-efficacy pharmacokinetic studies obtained plasma and CSF pharmacokinetic data. The I-1 CSF concentrations were combined with receptor affinity data to estimate receptor occupancy, and the combination of CSF concentrations and associated receptor occupancies were used to set dose regimens for the efficacy study.

[5] = bolus 0.11 mg/kg / infusion 0.0582 mg/kg/hr
[6] = bolus 1.7 mg/kg / infusion 0.9 mg/kg/hr
[7] = bolus 5.2 mg/kg / infusion 2.76 mg/kg/hr

CSc1nc(N)c2ncn([C@H]3C(O)C(O)[C@]4(CO)C[C@H]34)c2n1 (stereo in doubt) [Compound I-1]
efficacy in mouse TBI model [1]: effective; also recorded: significant efficacy
I-1 concentrations in the CSF versus unbound brain extracellular fluid [2]: equal to unbound brain extracellular fluid concentrations
free (unbound) fraction in brain ([3]; mouse brain tissue): 0.13
fraction available to interact with the A3 receptor, versus Cl-IB-IMECA ([3]; mouse models): at least 1000 fold
estimated receptor occupancies associated with efficacy (brain A1R/A3R): ≤ 1%
Kp at 22 h [4, 5]: 0.094
Kp at 22 h [4, 6]: 0.084
Kp at 22 h [4, 7]: 0.065
Actual Time-Averaged Steady-State [Plasma] [4, 5]: 25 ng/mL
Predicted Steady-State [Plasma] [4, 5]: 35 ng/mL
Actual Time-Averaged Steady-State [Plasma] [4, 6]: 363 ng/mL
Predicted Steady-State [Plasma] [4, 6]: 540 ng/mL
Actual Time-Averaged Steady-State [Plasma] [4, 7]: 1812 ng/mL
Predicted Steady-State [Plasma] [4, 7]: 1660 ng/mL
